Holding throughout (assay type): cell-based
Assay [1] has as its system MCF7 cells overexpressing the HER2 kinase (MCF7-HER2). As to the kind of experiment: MCF-7/HER-2 SRB Growth Assay. To be noted: Homo sapiens, read-out: GROWTH DATA: MCF7-HER2 0.5% FBS. The text has this: The following examples illustrate the ability of the exemplary compounds to inhibit receptor tyrosine kinases, such as HER2 and/or EGFR. The following target cells were used for cellular kinase assays: NIH3T3 clone C7 (Honegger et al., supra) engineered to over-express human EGF receptor; NIH3T3 cells engineered to over-express a chimeric receptor containing the EGFR extracellular domain and the HER2 intracellular kinase domain; the human mammary carcinoma line BT474 (ATCC HTB2) expressing HER2; and the human glioblastoma line U1242 that expresses PDGFR-beta. Growth assays were carried out using human mammary epithelial SKBR3 (ATCC HTB30) cells (SKBR3 cells over-express HER2), SKOV3 (ATCC HTB77) human ovarian cancer cell line (SKOV3 cells also over-express HER2), A431 cells (A431 cells over-express EGFR) MCF7 human breast carcinoma cells, MCF7 cells overexpressing the HER2 kinase (MCF7-HER2), NIH3T3 cells, and NIH3T3 cells overexpressing the HER2 kinase (3T3-HER2.
MCF-7/HER-2 SRB Growth Assay
The protocol is basically the same as that above (for the MCF-7 Growth Assay) except that immediately before the 30 compound is added, the normal growth media is removed and 0.5% FBS/RPMI supplemented with 2 mM Glutamine is added onto the cells. The compound is also prepared in this 0.5% serum media. The plate of cells is incubated for four days and developed as usual.

The next assay concerns the target T1, HER2 (Homo sapiens, UniProt P04626).
T1 construct: a human breast tumor cell line which expresses high levels of HER2 kinase; host or cells: BT-474 human breast tumor cells
As to the kind of experiment: HER2-ELISA, HER2-BT474 assay measuring whole cell HER2 activity. The procedure: Growth assays were carried out using human mammary epithelial SKBR3 (ATCC HTB30) cells (SKBR3 cells over-express HER2), SKOV3 (ATCC HTB77) human ovarian cancer cell line (SKOV3 cells also over-express HER2), A431 cells (A431 cells over-express EGFR) MCF7 human breast carcinoma cells, MCF7 cells overexpressing the HER2 kinase (MCF7-HER2), NIH3T3 cells, and NIH3T3 cells overexpressing the HER2 kinase (3T3-HER2.
HER2-BT474 assays measuring whole cell HER2 activity was carried out as described below:
2. […] The growth media is RPMI+10% FBS+GMS-G (Gibco supplement)+Glutamine.
3. A monoclonal anti-HER2 antibody is used in ELISA.
Incubate the cells in 5% CO2 at 37° C. overnight.
(§1) 2. ELISA Plate Coating and Blocking
The antibody coated plates can be used up to 2 weeks, when stored at 4° C.
(b) On the day of use, remove the coating solution, replace with 200 μl of Blocking Buffer, shake the plate, and then remove the blocking buffer and wash the plate just before adding lysate.
(a) […] the drugs in serum-free condition. Before adding drugs, the old media
(b) Dilute drug stock (in 100% DMSO) 1:10 with RPMI, and transfer 10 μl/well of this solution to the cells to achieve a final drug DMSO concentration at 1%. Incubate the cells in 5% CO2 at 37° C.
(c) Prepare fresh cell lysis buffer (HNTG*)
(d) After drug preincubation for two hours remove all the solution from the plate, transfer HNTG* 100 μl/well to the cells, and shake for 10 minutes.
(e) Use a 12-channel pipette to scrape the cells from the plate, and homogenize the lysate by repeat aspiration and dispensing. Transfer all the lysate to the ELISA plate and shake for 1 hour.
(f) Remove the lysate, wash the plate, add anti-pTyr (1:3,000 with TBST) 100 μl/well, and shake for 30 minutes.
(g) Remove anti-pTyr, wash the plate, add goat anti-rabbit IgG conjugated antibody (1:5,000 with TBST) 100 μl/well, and shake for 30 minutes.
(h) Remove anti-rabbit IgG antibody, wash the plate, and add fresh ABTS/H2 O2 (1.2 μl 30% H2 O2 in 10 ml ABTS) 100 μl/well to the plate to start color development, which usually takes 20 minutes.

Another assay has as its target T2, Insulin Receptor (Homo sapiens, UniProt P06213).
T2 construct: host or cells: H25 (NIH3T3)
As to the kind of experiment: Cellular Insulin Receptor ELISA. The procedure: Cellular Insulin Receptor ELISA (Version I)
The following protocol describes the cell line, reagents and procedures used to measure phosphotyrosine level on Insulin Receptor, which indicates Insulin Receptor tyrosine kinase activity.
(2). H25 cells are grown in an incubator with 5% CO2 at 37° C. The growth media is DMEM+10% FBS (heat inactivated)+2 mM L-Glutamine.
(3). For ELISA plate coating, the monoclonal anti-IR antibody named BBE is used. Antibodies are purified by the Enzymology Lab, SUGEN, Inc.
(2). […] Incubate for 1 day then replace medium to 0.01% serum medium (90/ul) and incubate in 5% CO2 and 37° C. overnight.
as §1
(2). Remove the coating solution, and replace with 100 ul Blocking Buffer, and shake for 30 minutes. Remove the blocking buffer and wash the plate just before adding lysate.
(1). The drugs are tested in serum-free condition.
(2). Dilute drug stock (in 100% DMSO) 1:10 with DMEM in 96-well poly-propylene plate, and transfer 10 ul/well of this solution to the cells to achieve final drug dilution 1:100, and final DMSO concentration of 1.0%. Incubate the cells in 5% CO2 at 37° C. for 2 hours.
(3). Prepare fresh cell lysis buffer (HNTG*) HNTG 2 ml EDTA 0.1 ml Na3VO4 0.1 ml Na4P2O7 0.1 ml H20 7.3 ml HNTG* 10 ml.
(4). After drug incubation for two hours, transfer 10 ul/well of 1 μM Insulin in PBS to the cells (Final Conc=100 nM), and incubate at 5% CO2 at 37° C. for 10 minutes.
(5). Remove media and add 100ul/well HNTG* and shake for 10 minutes. Look at cells under microscope to see if they are adequately lysed.
(6). Use a 12-channel pipette to scrape the cells from the plate, and homogenize the lysate by repeat aspiration and dispense. Transfer all the lysate to the antibody coated ELISA plate [V.2.(2)], and shake for 1 hour.
(7). Remove the lysate, wash the plate, transfer anti-pTyr (1:3,000 with TBST) 100 ul/well, and shake for 30 minutes.
(8). Remove anti-pTyr, wash the plate, transfer detection antibody (1:3,000 with TBST) 100 ul/well, and shake for 30 minutes.
(9). […]
For orientation: ELISA stands for enzyme-linked immunosorbent assay.

[2] abbreviates: BT474 cells, read-out: ELISA DATA: HER2 - (BT474).
[3] abbreviates: H25 cells (NIH3T3 overexpressing Insulin Receptor), insulin stimulated, read-out: ELISA DATA: IR.

Read-outs that look alike come from different tables or passages of the source.

T1 sequence (P04626 23-1255): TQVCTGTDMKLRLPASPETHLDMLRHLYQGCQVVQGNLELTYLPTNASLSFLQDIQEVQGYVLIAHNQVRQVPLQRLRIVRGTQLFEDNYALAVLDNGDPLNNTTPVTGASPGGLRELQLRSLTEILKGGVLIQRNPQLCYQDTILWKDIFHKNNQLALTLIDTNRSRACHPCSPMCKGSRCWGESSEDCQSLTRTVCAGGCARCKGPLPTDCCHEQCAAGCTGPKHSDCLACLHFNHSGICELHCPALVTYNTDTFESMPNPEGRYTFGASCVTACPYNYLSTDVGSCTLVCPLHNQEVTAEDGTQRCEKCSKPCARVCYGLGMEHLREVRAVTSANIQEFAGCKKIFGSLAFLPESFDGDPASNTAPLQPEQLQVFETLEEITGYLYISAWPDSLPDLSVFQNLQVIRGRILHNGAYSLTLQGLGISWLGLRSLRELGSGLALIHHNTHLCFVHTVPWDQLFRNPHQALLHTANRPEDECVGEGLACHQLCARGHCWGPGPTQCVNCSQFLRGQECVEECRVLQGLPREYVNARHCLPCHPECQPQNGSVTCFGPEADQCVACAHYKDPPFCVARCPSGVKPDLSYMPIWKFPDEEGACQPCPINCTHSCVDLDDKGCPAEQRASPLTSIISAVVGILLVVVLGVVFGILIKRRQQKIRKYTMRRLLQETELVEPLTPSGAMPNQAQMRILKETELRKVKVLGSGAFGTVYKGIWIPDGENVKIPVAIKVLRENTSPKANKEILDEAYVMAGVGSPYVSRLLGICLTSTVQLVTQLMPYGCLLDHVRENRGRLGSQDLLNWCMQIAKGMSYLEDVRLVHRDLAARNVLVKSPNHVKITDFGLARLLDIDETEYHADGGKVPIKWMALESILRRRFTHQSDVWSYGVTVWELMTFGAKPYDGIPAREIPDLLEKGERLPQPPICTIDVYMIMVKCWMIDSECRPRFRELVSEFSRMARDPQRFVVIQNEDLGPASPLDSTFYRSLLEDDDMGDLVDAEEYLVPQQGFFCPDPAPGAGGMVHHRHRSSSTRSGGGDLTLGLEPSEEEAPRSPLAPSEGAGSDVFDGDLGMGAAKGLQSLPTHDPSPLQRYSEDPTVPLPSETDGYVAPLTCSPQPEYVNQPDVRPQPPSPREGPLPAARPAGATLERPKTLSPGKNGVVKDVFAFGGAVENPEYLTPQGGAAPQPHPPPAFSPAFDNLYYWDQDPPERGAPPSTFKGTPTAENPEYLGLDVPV
T2 sequence (P06213 28-1382, species assumed): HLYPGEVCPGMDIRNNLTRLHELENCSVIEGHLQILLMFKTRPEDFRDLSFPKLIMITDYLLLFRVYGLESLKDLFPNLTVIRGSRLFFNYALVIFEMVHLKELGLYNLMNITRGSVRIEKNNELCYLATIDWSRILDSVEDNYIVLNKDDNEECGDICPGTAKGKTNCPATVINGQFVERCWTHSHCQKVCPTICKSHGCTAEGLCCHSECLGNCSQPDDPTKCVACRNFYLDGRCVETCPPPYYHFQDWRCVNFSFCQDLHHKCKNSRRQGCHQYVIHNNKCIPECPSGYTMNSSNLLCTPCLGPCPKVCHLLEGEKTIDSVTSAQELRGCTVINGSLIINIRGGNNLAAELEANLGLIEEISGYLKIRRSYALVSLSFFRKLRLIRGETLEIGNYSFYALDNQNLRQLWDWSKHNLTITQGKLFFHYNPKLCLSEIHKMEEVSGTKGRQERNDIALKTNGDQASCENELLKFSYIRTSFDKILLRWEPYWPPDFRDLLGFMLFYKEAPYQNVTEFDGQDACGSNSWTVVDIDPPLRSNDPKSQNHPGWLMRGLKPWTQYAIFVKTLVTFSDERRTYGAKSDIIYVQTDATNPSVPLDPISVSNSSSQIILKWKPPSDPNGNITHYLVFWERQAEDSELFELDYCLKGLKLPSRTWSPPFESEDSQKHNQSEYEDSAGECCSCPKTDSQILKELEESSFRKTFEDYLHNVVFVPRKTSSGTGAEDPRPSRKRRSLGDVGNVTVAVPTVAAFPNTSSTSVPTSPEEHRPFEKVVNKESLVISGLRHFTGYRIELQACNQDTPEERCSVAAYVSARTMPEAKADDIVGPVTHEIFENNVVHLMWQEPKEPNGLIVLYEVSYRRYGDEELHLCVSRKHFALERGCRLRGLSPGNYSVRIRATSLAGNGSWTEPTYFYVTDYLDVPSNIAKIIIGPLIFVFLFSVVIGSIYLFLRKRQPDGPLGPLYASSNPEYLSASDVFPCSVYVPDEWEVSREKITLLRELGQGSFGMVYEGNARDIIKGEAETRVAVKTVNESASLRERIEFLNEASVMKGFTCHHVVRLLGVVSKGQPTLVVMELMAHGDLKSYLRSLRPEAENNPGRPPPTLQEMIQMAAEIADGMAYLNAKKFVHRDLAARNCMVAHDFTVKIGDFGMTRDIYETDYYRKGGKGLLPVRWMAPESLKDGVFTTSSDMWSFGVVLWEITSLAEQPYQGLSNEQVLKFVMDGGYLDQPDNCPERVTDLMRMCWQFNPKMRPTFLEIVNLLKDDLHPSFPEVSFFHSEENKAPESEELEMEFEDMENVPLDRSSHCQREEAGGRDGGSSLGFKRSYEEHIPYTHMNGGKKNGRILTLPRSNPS

On to `CC(C)S(=O)(=O)c1csc(NC(=O)Nc2cc(C(F)(F)F)cc(C(F)(F)F)c2)c1Cl` [Example Z2, N-[3-Chloro-4-(isopropylsulfonyl)thien-2-yl]-N'-(3,5-di-trifluoromethylphenyl)urea], for which the IC50 is 300 nM in assay [1], 3.2 µM on HER2 (setting [2]) and > 100 µM on Insulin Receptor (setting [3]).

For the compound `O=C(Nc1ccc(SC(F)(F)F)cc1)Nc1ccc(Oc2ccc(Cl)cc2Cl)nc1` [Example Z3], the IC50 was 200 nM in assay [1], 9.9 µM against HER2 and > 100 µM against Insulin Receptor.

Regarding `N#Cc1ccc(NC(=S)Nc2ccc(S(=O)(=O)N3CCCCC3)cc2)cc1` [Example Z4, N-(4-Cyanophenyl)-N'-[4-[(piperid-1-yl)sulfonyl]phenyl]thiourea], the results for the IC50 (in assay [1]; on HER2 (setting [2])) were 1000 nM and 9.3 µM, respectively.

As for `CC(C)S(=O)(=O)c1csc(NC(=O)Nc2ccc(C(C)(C)C)cc2)c1Cl` [Example Z1, N-[3-Chloro-4-(isopropylsulfonyl)thien-2-yl]-N'-(4-t-butylphenyl)urea], the IC50 in assay [1] was 900 nM; at HER2 (setting [2]) it was 11.8 µM; at Insulin Receptor (setting [3]), > 100 µM.
